Assay results: patent US8420654B2 (Eli Lilly and Company, priority 2008, dated 2013)

How the values were obtained:
rCB-1 = biological target: T1, rCB-1 (Rattus norvegicus, UniProt P20272); experiment: rCB1-CHO antagonist mode SPA GTP-γ-35S binding assay; type: biochemical; conditions: rat CB-1 CHO membranes, antagonist mode vs methanandamide; read-out: rCB-1 SPA GTPγS CHO Membrane Antagonist Kb
T1 construct: purchased Applied Cell Sciences, Rockville, Md; host or cells: CHO cells (membranes)
Procedure: (§1) Compounds of the present invention may be tested for functional activity at the CB-1 and CB-2 receptors in both agonist and antagonist modes using SPA (Scintillation Proximity Assay) based GTP-γ-^35S binding assays. All assay components are prepared in assay buffer (20 mM HEPES, 100 mM NaCl, 5 mM MgCl2, pH 7.4) at room temperature. Semi-log dilutions of test compound are prepared in assay buffer containing BSA (0.125% final conc.) for the agonist mode assays. For the antagonist mode assays, test compounds are prepared in the same manner but also include an 80% efficacious dose of a full agonist (methanandamide). GTP-γ^35S binding for the antagonist assay may be measured in a 96 well format using a modification of an antibody capture technique previously described. (DeLapp, N W, et al. (1999) J Pharmacol Exp Ther 289:946-955.) The CB-2 receptor agonist activity may be measured using a similar method using hCB2-Sf9 membranes. The CB-1 receptor agonist activity may be measured using a whole membrane capture technique using hCB1-CHO membranes. All incubations are done at room temperature.
(§2) hCB1-CHO and rCB1-CHO Antagonist Assays:
hCB1-CHO or rCB1-CHO membranes (Applied Cell Sciences, Rockville, Md.) and GDP (1 μM final) are added to ice cold assay buffer and homogenized. […] Plates are then centrifuged at 700×g for 10 min. and the radioactivity counted.
Data are analyzed as follows: Background is subtracted from all wells. […] Percent antagonist inhibition is calculated by first normalizing the data to the signal generated by a saturating concentration of the full agonist (methanandamide). Then the data are analyzed using a 4-parameter logistic reduced fit (Activity Base™ and XLFit3™ from IDBS, Emeryville, Calif.). Kb values are determined using a modification of the Cheng-Prusoff relationship: Kb=IC50/(1+[agonist]/EC50), where “IC50” is determined from a four parameter fit of displacement curves, “[agonist]” is the agonist challenge concentration (nM), and “EC50” is determined from a four parameter fit of a full agonist concentration response curve (Cheng and Prusoff 1973). […]

hCB-1 [1] = biological target: T2, hCB-1 (Homo sapiens, UniProt P21554); experiment: hCB1-CHO antagonist mode SPA GTP-γ-35S binding assay; type: biochemical; conditions: human CB-1 CHO membranes, antagonist mode vs methanandamide; read-out: hCB-1 SPA GTPγS CHO Membrane Antagonist Kb
T2 construct: purchased Applied Cell Sciences, Rockville, Md; host or cells: CHO cells (membranes)
T2 sequence (P21554 whole entry): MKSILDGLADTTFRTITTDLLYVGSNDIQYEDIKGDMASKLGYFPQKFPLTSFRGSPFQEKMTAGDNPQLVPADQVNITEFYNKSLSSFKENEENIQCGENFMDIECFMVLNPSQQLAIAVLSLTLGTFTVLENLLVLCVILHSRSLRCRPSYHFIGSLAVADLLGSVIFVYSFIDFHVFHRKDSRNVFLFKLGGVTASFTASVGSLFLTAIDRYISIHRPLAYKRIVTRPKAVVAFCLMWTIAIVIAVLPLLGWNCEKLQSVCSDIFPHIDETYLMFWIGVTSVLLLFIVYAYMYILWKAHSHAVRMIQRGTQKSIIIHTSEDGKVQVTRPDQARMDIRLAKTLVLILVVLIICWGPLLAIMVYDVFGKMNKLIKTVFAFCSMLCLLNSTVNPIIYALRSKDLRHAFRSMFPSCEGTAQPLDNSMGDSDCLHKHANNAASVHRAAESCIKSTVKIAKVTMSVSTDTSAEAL
Procedure: as §1, §2
hCB1-CHO or rCB1-CHO membranes (Applied Cell Sciences, Rockville, Md.) and GDP (1 μM final) are added to ice cold assay buffer and homogenized. Diluted compounds, GTP-γ-^35S (500 nM final conc.) and membranes are added to wells of an assay plate and incubated for 30 min. at room temperature. Next, a mixture containing Nonidet P40 detergent (0.2% final conc.), rabbit polyclonal IgG Gαi-3 antibody (provided by Covance, Princeton, N.J.), and 1.25 mg anti-rabbit antibody scintillation proximity assay beads (GE Healthcare, Piscataway, N.J.) is added. The plates are sealed, vortexed, and incubated for an additional 2 hr. Plates are then centrifuged at 700×g for 10 min. and the radioactivity counted.
Data are analyzed as follows: Background is subtracted from all wells. […] Percent antagonist inhibition is calculated by first normalizing the data to the signal generated by a saturating concentration of the full agonist (methanandamide). Then the data are analyzed using a 4-parameter logistic reduced fit (Activity Base™ and XLFit3™ from IDBS, Emeryville, Calif.). Kb values are determined using a modification of the Cheng-Prusoff relationship: Kb=IC50/(1+[agonist]/EC50), where “IC50” is determined from a four parameter fit of displacement curves, “[agonist]” is the agonist challenge concentration (nM), and “EC50” is determined from a four parameter fit of a full agonist concentration response curve (Cheng and Prusoff 1973). Mean Kb values are calculated as a mean of at least three independent determinations±standard error of the mean (SEM). […]

hCB-2 [2] = biological target: T3, hCB-2 (Homo sapiens, UniProt P34972); experiment: hCB2-Sf9 antagonist mode SPA GTP-γ-35S binding assay; type: biochemical; conditions: human CB-2 Sf9 membranes, antagonist mode vs methanandamide; read-out: hCB-2 SPA GTPγS Sf9 Membrane Antagonist Kb
T3 construct: purchased Perkin Elmer, Boston, Mass; host or cells: Sf9 insect cells (membranes)
T3 sequence (P34972 whole entry): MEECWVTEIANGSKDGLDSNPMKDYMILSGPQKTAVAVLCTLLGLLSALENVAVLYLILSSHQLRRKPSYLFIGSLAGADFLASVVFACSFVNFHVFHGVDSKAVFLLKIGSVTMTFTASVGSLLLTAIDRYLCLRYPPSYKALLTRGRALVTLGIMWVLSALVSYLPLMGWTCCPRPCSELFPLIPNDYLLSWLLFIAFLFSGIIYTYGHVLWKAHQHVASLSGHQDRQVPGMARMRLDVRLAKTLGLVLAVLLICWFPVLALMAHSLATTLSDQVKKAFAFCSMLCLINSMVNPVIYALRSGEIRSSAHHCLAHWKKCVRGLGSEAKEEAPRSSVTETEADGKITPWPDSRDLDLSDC
Procedure: as §1
hCB1-Sf9 and hCB2-Sf9 antagonist Assays:
hCB1-5f9 and hCB2-5f9 membranes (Perkin Elmer, Boston, Mass.) are prepared essentially as above with 1 μM (final conc.) GDP for hCB1-5f9 and 0.05 μM (final conc.) GDP for hCB2-5f9. The assay is run essentially as described for the CHO membranes above. Diluted membranes are pre-incubated with test compound for 15 min., which is followed by addition of GTP-γ-^35S and a further 35 min. incubation. Nonidet P40 and anti-Gi-antibody are added sequentially with a 15 min. incubation after each addition. The SPA beads are then added, the plates are sealed and vortexed, and then incubated at room temperature for 1 hr.
Data are analyzed as follows: Background is subtracted from all wells. Percent agonist efficacy is determine by normalizing agonist/inverse agonist dose response data to the response obtained for a full agonist (methanandamide). Percent antagonist inhibition is calculated by first normalizing the data to the signal generated by a saturating concentration of the full agonist (methanandamide). Then the data are analyzed using a 4-parameter logistic reduced fit (Activity Base™ and XLFit3™ from IDBS, Emeryville, Calif.). Kb values are determined using a modification of the Cheng-Prusoff relationship: Kb=IC50/(1+[agonist]/EC50), where “IC50” is determined from a four parameter fit of displacement curves, “[agonist]” is the agonist challenge concentration (nM), and “EC50” is determined from a four parameter fit of a full agonist concentration response curve (Cheng and Prusoff 1973). Mean Kb values are calculated as a mean of at least three independent determinations±standard error of the mean (SEM). […]

hCB-1 [3] = biological target: T2, hCB-1; experiment: hCB1-CHO agonist mode SPA GTP-γ-35S binding assay; type: biochemical; conditions: for hCB-1 SPA GTPγS CHO Membrane Agonist % Relative Efficacy: normalized to full agonist methanandamide, below zero = inverse agonist; for EC50: human CB-1 CHO membranes, agonist mode (inverse agonism), read-out: hCB-1 SPA GTPγS CHO Membrane Agonist Relative EC50 inverse
Procedure: as §1
hCB1-CHO membrane, GDP (1 μM final conc.), and saponin (10 ng/mL final conc., Sigma, St Louis, Mo.) are combined and prepared on ice as for the antagonist assays, above. Diluted test compounds, GTP-γ-^35S (500 nM final conc.) and membranes are combined in the assay plate and incubated for 30 min. Then 1 mg/well Wheatgerm Agglutinin SPA beads (GE Healthcare, Piscataway, N.J.) are added, plates are sealed and vortexed and incubate for 1 hr. before spinning and counting in the same fashion as for the antagonist assays, above.
(§3) Data are analyzed as follows: Background is subtracted from all wells. Percent agonist efficacy is determine by normalizing agonist/inverse agonist dose response data to the response obtained for a full agonist (methanandamide). Percent antagonist inhibition is calculated by first normalizing the data to the signal generated by a saturating concentration of the full agonist (methanandamide). Then the data are analyzed using a 4-parameter logistic reduced fit (Activity Base™ and XLFit3™ from IDBS, Emeryville, Calif.). Kb values are determined using a modification of the Cheng-Prusoff relationship: Kb=IC50/(1+[agonist]/EC50), where “IC50” is determined from a four parameter fit of displacement curves, “[agonist]” is the agonist challenge concentration (nM), and “EC50” is determined from a four parameter fit of a full agonist concentration response curve (Cheng and Prusoff 1973). Mean Kb values are calculated as a mean of at least three independent determinations±standard error of the mean (SEM). (Cheng Y C and Prusoff W H. (1973), Biochem Pharmacol 22:3099-3108.) Exemplified compounds are found to be potent CB-1 inverse agonists (Kb≦10 nM, typically <2 nM) and to be selective over the CB-2 receptor (Kb CB-2/Kb CB-1>500, typically >1000).

hCB-2 [4] = biological target: T3, hCB-2; experiment: hCB2-Sf9 agonist mode SPA GTP-γ-35S binding assay; type: biochemical; conditions: human CB-2 Sf9 membranes, read-out: hCB-2 SPA GTPγS Sf9 Membrane Agonist Relative EC50
Procedure: as §1
The hCB2-5f9 assay is run essentially as for the hCB1-sf9 and hCB2-sf9 antagonist assays above, with no challenging agonist added. 1 μM (final conc.) GDP is added to the membrane solution and nonidet P40, anti-Gi-antibody, and SPA bead are added together in a cocktail.
as §3

CYP2C9 = biological target: T4, CYP2C9 (Homo sapiens, UniProt P11712); experiment: Human CYP fingerprinting, sulfaphenazole inhibitor; type: in vitro ADME; conditions: 4 μM, human liver microsomes, 30 min, sulfaphenazole 5 μM
T4 construct: pooled, mixed gender, human liver microsomes; from tissue; host or cells: pooled, mixed gender human liver microsomes
T4 sequence (P11712 whole entry): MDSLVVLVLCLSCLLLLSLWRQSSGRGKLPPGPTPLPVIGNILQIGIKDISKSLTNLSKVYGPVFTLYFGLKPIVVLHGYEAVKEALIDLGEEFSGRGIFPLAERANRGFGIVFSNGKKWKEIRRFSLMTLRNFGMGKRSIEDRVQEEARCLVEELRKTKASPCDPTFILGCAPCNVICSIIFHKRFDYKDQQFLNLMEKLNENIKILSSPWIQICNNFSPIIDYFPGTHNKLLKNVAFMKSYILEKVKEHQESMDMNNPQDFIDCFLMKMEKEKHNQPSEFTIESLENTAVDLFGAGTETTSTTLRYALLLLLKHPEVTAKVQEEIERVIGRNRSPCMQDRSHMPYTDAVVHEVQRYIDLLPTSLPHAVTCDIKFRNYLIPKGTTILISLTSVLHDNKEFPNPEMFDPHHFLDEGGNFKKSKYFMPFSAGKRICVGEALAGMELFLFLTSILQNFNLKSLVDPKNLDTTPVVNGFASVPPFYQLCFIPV
Procedure: (§4) CYP fingerprinting is well established technique and is used as an indication of potential risk of drug-drug interactions in the pharmaceutical sciences. Compounds of the present invention may be assayed by well known methods, essentially as follows: Compounds are incubated at 37° C. at a final concentration of 4 μM with pooled, mixed gender, human liver microsomes and 1 mM NADPH ([…]) (final conc.) for 0 and 30 min. without any CYP inhibitor and with each CYP inhibitor in separate incubations for 30 min. Each inhibitor is specific for an individual cytochrome P450. The specific inhibitors used for CYPs 2C9, 2D6 and 3A were sulfaphenazole, quinidine and ketoconazole, respectively. Ketoconazole (CYP3A) is made up at 25 mM in DMSO and then diluted in buffer to a final concetration of 10 μM. Quinidine (CYP2D6) is made up at 5 mM in 50/50 acetonitrile/water and then diluted in buffer to a final concetration of 10 μM. Sulfaphenazole (CYP2C9) is made up at 100 mM in DMSO and then diluted in buffer to a final concetration of 5 μM. Samples are analyzed by LC-MS in positive or negative electrospray mode using a Waters Acquity Ultra Performance LC coupled to a MicroMass Q-T of-2 mass spectrometer.
(§5) Data are analyzed using MetaboLynx™ version 4.1. With inhibitor present, a reduction in metabolite peak area of less than 30% (relative to the uninhibited control incubation) receives a designation of low risk of Drug Drug Interaction (DDI), a reduction in peak area between 30% and 70% receives a moderate risk of DDI and a reduction of more than 70% receives a high risk of DDI.

CYP3A = experiment: Human CYP fingerprinting, ketoconazole inhibitor; type: in vitro ADME; conditions: 4 μM, human liver microsomes, 30 min, ketoconazole 10 μM
Procedure: as §4, §5

CYP2D6 = biological target: T5, CYP2D6 (Homo sapiens, UniProt P10635); experiment: Human CYP fingerprinting, quinidine inhibitor; type: in vitro ADME; conditions: 4 μM, human liver microsomes, 30 min, quinidine 10 μM
T5 construct: pooled, mixed gender, human liver microsomes; from tissue; host or cells: pooled, mixed gender human liver microsomes
T5 sequence (P10635 whole entry): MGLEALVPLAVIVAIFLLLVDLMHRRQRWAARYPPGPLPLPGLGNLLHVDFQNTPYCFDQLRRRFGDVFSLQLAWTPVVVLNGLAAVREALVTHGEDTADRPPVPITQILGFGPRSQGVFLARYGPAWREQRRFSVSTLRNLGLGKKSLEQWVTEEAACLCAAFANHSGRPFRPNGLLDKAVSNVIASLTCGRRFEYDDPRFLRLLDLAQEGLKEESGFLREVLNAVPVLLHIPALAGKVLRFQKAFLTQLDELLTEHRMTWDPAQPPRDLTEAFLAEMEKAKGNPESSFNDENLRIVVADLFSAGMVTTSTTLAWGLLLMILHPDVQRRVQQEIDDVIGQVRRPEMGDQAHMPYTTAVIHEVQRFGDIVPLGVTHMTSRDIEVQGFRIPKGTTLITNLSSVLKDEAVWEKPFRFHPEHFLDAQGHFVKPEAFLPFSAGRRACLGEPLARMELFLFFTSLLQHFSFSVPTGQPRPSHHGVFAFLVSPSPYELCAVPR
Procedure: as §4, §5

T1 sequence (P20272 whole entry): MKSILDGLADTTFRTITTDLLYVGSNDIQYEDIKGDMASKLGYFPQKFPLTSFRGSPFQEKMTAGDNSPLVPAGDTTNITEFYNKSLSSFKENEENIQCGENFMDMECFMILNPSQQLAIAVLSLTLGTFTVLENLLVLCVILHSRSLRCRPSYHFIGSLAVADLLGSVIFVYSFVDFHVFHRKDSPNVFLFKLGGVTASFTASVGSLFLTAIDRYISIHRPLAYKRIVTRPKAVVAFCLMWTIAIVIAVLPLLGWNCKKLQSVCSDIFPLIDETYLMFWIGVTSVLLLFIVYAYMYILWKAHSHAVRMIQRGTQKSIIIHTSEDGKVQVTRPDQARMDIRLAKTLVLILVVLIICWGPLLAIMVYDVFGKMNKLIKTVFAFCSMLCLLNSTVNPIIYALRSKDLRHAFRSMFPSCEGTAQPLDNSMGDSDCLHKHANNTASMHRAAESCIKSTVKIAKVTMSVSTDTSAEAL

SMILES | Kb (rCB-1) [nM] | Kb (hCB-1 [1]) [nM] | Kb (hCB-2 [2]) [nM] | hCB-1 SPA GTPγS CHO Membrane Agonist % Relative Efficacy (hCB-1 [3]) [%] | EC50 (hCB-2 [4]) [nM] | Risk of Drug Drug Interaction (DDI) CYP2C9 (CYP2C9) | EC50 (hCB-1 [3]) [nM] | Risk of Drug Drug Interaction (DDI) CYP3A (CYP3A) | Risk of Drug Drug Interaction (DDI) CYP2D6 (CYP2D6)
CC(C)(N[C@@H]1C[C@H](c2cccc(OC(F)(F)F)c2)N(c2ccc(C(F)(F)F)cc2)C1=O)c1ccnc(C(F)(F)F)n1 [Example 1, (3R,5R)-3-[1-Methyl-1-(2-trifluoromethyl-pyrimidin-4-yl)-ethylamino]-5-(3-trifluoromethoxy-phenyl)-1-(4-trifluoromethyl-phenyl)-pyrrolidin-2-one] | 0.177 | 0.895 | > 8710 | −99.3 | > 8710 | low (a reduction in metabolite peak area of less than 30% (relative to the uninhibited control incubation) receives a designation of low risk of Drug Drug Interaction (DDI)) |  |  | 
CC(C)(N[C@@H]1C[C@H](c2ccccc2)N(c2ccc(OC(F)(F)F)cc2)C1=O)c1ccnc(C(F)(F)F)n1 [Example 4] | 0.176 | 0.83 | 288 | −105 | 288 | low (a reduction in metabolite peak area of less than 30% (relative to the uninhibited control incubation) receives a designation of low risk of Drug Drug Interaction (DDI)) | 2.52 | low (a reduction in metabolite peak area of less than 30% (relative to the uninhibited control incubation) receives a designation of low risk of Drug Drug Interaction (DDI)) | low (a reduction in metabolite peak area of less than 30% (relative to the uninhibited control incubation) receives a designation of low risk of Drug Drug Interaction (DDI))
CC(C)(N[C@@H]1C[C@H](c2cccc(OC(F)(F)F)c2)N(c2ccc(C(F)(F)F)cc2)C1=O)c1ccnc(C(F)(F)F)n1 [Example 6, (3R,5R)-3-[1-Methyl-1-(2-trifluoromethyl-pyrimidin-4-yl)-ethylamino]-5-(3-trifluoromethoxy-phenyl)-1-(4-trifluoromethyl-phenyl)-pyrrolidin-2-one adipate] |  |  |  |  |  |  |  | low (a reduction in metabolite peak area of less than 30% (relative to the uninhibited control incubation) receives a designation of low risk of Drug Drug Interaction (DDI)) | low (a reduction in metabolite peak area of less than 30% (relative to the uninhibited control incubation) receives a designation of low risk of Drug Drug Interaction (DDI))
CC(C)(N[C@@H]1C[C@H](c2cccc(F)c2)N(c2ccc(OC(F)(F)F)cc2)C1=O)c1ccnc(C(F)(F)F)n1 [Example 3, (3R,5R)-3-[1-Methyl-1-(2-trifluoromethyl-pyrimidin-4-yl)-ethylamino]-5-(3-fluoro-phenyl)-1-(4-trifluoromethoxy-phenyl)-pyrrolidin-2-one] | 0.195 | 0.916 | 397 | −107 | 379 | low (a reduction in metabolite peak area of less than 30% (relative to the uninhibited control incubation) receives a designation of low risk of Drug Drug Interaction (DDI)) | 1.11 | low (a reduction in metabolite peak area of less than 30% (relative to the uninhibited control incubation) receives a designation of low risk of Drug Drug Interaction (DDI)) | low (a reduction in metabolite peak area of less than 30% (relative to the uninhibited control incubation) receives a designation of low risk of Drug Drug Interaction (DDI))
CC(C)(N[C@@H]1C[C@H](c2cccc(OC(F)(F)F)c2)N(c2ccc(C(F)(F)F)cc2)C1=O)c1ccnc(C2CC2)n1 [Example 2, (3R,5R)-3-[1-(2-Cyclopropyl-pyrimidin-4-yl)-1-methyl-ethylamino]-5-(3-trifluoromethoxy-phenyl)-1-(4-trifluoromethyl-phenyl)-pyrrolidin-2-one] |  | 0.644 | > 10800 | −108 | > 10800 | low (a reduction in metabolite peak area of less than 30% (relative to the uninhibited control incubation) receives a designation of low risk of Drug Drug Interaction (DDI)) | 2.39 | low (a reduction in metabolite peak area of less than 30% (relative to the uninhibited control incubation) receives a designation of low risk of Drug Drug Interaction (DDI)) | low (a reduction in metabolite peak area of less than 30% (relative to the uninhibited control incubation) receives a designation of low risk of Drug Drug Interaction (DDI))
